Assay results from patent publication US20240210412A1, “SULFONYL-TRIAZOLE COMPOUNDS USEFUL AS LIGANDS AND INHIBITORS OF PROSTAGLANDIN REDUCTASE 2” (University of Virginia Patent Foundation, priority 2021, published 2024).

Experiments:
Test in all cases: SILAC LC-MS ABPP
Type in all cases: cell-based
Conditions in all cases: 25 μM 2 h, live DM93 cells
[1] = target: T1, O00267 (Homo sapiens, UniProt O00267)
T1 construct: endogenous in cells; host or cells: DM93
Summary of the method: (§1)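 DM93 SILAC cells, ligand 25 μM vs DMSO, 2 h; HHS-475 100 μM, 2 h; CuAAC desthiobiotin tag; 1:1 pool; trypsin; avidin enrichment; LC-MS/MS site quantification.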

[2] = target: T2, Q9UMX5 (Homo sapiens, UniProt Q9UMX5)
T2 construct: endogenous in cells; host or cells: DM93 cells (SILAC)
T2 sequence (Q9UMX5 32-172): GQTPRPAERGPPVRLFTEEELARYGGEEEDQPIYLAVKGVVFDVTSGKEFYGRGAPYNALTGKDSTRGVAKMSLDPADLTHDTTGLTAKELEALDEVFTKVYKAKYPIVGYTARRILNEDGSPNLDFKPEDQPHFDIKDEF
Summary of the method: as §1

[3] = target: T3, Q9UFN0 (Homo sapiens, UniProt Q9UFN0)
T3 construct: endogenous in cells; host or cells: DM93 cells (SILAC)
T3 sequence (Q9UFN0 whole entry): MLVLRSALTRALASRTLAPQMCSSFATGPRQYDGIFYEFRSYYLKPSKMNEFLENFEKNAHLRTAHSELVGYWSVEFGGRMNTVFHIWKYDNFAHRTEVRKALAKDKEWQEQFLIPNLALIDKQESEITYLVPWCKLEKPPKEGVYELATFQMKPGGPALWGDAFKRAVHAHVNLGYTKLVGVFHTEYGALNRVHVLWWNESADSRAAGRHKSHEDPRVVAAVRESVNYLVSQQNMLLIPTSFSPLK
Summary of the method: as §1

[4] = target: T4, P62277 (Homo sapiens, UniProt P62277)
T4 construct: performing SuTEx compound screening directly in cells; endogenous in cells; host or cells: DM93 cells (SILAC)
Summary of the method: as §1

[5] = target: T5, Q14978 (Homo sapiens, UniProt Q14978)
T5 construct: performing SuTEx compound screening directly in cells; endogenous in cells; host or cells: DM93 cells (SILAC), soluble fraction
Summary of the method: as §1

[6] = target: T6, P28482 (Homo sapiens, UniProt P28482)
T6 construct: endogenous in cells; host or cells: DM93 (SILAC)
Summary of the method: as §1

[7] = target: T7, O95757 (Homo sapiens, UniProt O95757)
T7 construct: endogenous in cells; host or cells: DM93 cells (SILAC)
T7 sequence (O95757 whole entry): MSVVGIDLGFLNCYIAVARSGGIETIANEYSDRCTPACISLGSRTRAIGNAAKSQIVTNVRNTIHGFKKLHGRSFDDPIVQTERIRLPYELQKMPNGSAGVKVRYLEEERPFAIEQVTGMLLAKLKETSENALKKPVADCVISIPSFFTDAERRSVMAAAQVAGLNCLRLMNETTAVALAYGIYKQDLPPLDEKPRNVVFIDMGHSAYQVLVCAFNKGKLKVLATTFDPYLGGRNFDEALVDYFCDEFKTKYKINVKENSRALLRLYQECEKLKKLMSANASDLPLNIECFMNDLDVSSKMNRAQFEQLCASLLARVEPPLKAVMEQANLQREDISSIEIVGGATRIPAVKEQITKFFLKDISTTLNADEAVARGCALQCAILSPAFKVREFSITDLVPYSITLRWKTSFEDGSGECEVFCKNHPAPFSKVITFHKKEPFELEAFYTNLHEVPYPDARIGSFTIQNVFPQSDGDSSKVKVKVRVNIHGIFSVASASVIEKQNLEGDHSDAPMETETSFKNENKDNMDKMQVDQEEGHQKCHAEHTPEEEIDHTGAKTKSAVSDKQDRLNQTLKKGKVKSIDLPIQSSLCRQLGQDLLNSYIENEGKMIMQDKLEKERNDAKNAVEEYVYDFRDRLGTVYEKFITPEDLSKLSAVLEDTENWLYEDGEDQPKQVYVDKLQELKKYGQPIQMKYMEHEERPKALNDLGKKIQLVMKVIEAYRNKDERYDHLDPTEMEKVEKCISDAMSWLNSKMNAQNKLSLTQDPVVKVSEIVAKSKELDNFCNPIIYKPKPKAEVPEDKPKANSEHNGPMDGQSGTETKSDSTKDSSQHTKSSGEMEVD
Summary of the method: as §1

[8] = target: T8, Q9BXS6 (Homo sapiens, UniProt Q9BXS6)
T8 construct: endogenous in cells; host or cells: DM93 cells (SILAC), treated live; soluble proteome analysed
T8 sequence (Q9BXS6 whole entry): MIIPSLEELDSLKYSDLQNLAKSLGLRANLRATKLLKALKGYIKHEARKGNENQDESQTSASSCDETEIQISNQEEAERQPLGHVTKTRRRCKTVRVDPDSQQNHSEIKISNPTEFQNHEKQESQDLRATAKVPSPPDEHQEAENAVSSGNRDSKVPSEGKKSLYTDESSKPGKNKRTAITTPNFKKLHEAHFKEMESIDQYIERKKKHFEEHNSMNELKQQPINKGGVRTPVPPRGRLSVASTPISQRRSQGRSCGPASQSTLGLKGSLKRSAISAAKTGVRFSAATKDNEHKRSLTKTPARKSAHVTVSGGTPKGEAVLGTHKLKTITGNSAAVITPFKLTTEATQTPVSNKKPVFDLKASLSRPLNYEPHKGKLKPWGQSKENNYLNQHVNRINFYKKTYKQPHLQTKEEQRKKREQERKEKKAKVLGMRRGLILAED
Summary of the method: as §1

[9] = target: T9, O00232 (Homo sapiens, UniProt O00232)
T9 construct: endogenous in cells; host or cells: DM93
Summary of the method: as §1

[10] = target: T10, Q9BXJ9 (Homo sapiens, UniProt Q9BXJ9)
T10 construct: endogenous in cells; host or cells: DM93 cells (SILAC), treated live; soluble proteome analysed
T10 sequence (Q9BXJ9 whole entry): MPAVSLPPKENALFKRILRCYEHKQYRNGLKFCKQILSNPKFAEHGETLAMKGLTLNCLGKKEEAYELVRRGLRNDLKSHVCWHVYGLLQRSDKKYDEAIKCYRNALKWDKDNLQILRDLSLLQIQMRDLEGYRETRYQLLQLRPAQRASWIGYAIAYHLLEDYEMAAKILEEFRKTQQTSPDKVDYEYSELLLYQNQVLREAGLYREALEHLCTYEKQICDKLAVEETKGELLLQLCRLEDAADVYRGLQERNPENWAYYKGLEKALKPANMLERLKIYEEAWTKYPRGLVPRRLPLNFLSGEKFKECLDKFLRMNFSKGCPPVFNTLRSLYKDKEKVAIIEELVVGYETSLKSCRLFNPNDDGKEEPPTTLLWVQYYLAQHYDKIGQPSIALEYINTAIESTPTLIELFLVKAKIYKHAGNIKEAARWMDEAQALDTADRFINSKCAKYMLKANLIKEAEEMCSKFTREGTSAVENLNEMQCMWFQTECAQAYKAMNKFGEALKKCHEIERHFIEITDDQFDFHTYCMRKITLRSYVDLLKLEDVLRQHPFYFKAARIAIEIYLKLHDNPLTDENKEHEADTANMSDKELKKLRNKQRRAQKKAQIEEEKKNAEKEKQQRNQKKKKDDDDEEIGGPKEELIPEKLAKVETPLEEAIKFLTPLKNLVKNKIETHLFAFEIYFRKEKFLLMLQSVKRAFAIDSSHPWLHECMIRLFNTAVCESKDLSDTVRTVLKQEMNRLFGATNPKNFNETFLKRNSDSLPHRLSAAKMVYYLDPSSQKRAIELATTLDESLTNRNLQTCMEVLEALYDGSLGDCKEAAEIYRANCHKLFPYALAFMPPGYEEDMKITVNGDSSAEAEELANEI
Summary of the method: as §1

[11] = target: T11, Q15293 (Homo sapiens, UniProt Q15293)
T11 construct: performing SuTEx compound screening directly in cells; endogenous in cells; host or cells: DM93 cells (SILAC), soluble fraction
Summary of the method: as §1

[12] = target: T12, Q7Z6E9 (Homo sapiens, UniProt Q7Z6E9)
T12 construct: endogenous in cells; host or cells: DM93 cells (SILAC), live-cell treatment
Summary of the method: as §1

[13] = target: T13, O15318 (Homo sapiens, UniProt O15318)
T13 construct: endogenous in cells; host or cells: DM93
T13 sequence (O15318 whole entry): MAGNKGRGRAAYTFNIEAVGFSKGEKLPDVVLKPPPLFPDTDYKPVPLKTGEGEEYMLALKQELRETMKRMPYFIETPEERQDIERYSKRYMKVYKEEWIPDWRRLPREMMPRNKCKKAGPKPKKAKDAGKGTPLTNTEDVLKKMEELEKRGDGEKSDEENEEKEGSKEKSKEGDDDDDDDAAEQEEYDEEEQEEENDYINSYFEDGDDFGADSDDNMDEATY
Summary of the method: as §1

[14] = target: T14, P23921 (Homo sapiens, UniProt P23921)
T14 construct: Probe-modified proteins from the soluble fraction were conjugated to a desthiobiotin-azide tag; endogenous in cells; host or cells: DM93 (SILAC)
T14 sequence (P23921 whole entry): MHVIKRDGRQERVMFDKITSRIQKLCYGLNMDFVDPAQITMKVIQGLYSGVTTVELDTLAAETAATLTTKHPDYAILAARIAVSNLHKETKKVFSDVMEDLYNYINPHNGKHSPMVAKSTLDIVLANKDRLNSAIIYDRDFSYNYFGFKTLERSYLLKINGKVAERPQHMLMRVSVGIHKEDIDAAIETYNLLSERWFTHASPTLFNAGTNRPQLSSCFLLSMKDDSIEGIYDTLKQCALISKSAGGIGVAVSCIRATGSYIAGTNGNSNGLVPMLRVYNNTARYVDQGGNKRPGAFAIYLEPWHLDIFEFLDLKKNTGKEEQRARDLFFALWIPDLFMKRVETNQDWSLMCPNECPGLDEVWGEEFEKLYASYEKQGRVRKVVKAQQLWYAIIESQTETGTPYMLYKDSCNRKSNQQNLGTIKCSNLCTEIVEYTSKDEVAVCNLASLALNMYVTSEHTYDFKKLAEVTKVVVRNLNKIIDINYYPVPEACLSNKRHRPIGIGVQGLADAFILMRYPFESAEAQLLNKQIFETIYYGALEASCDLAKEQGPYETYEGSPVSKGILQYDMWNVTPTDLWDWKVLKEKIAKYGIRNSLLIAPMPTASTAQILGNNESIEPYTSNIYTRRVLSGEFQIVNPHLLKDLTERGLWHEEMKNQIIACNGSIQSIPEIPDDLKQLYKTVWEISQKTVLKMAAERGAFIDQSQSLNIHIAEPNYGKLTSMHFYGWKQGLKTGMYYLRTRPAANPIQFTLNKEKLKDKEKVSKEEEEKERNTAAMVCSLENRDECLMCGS
Summary of the method: as §1

[15] = target: T15, P36507 (Homo sapiens, UniProt P36507)
T15 construct: endogenous in cells; host or cells: DM93 (SILAC)
T15 sequence (P36507 whole entry): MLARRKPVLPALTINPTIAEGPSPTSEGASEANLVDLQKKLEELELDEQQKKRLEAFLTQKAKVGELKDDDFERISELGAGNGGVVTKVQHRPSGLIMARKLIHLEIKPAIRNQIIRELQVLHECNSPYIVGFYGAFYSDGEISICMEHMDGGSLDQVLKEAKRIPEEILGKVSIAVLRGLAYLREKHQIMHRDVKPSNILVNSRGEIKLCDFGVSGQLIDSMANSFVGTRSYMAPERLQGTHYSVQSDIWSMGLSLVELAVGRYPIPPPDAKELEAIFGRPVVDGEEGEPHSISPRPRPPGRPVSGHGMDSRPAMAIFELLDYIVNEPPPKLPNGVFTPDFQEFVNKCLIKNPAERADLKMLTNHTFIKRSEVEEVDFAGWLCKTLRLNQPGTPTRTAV
Summary of the method: as §1

[16] = target: T16, O95260 (Homo sapiens, UniProt O95260)
T16 construct: endogenous in cells; host or cells: DM93 cells (SILAC)
T16 sequence (O95260 whole entry): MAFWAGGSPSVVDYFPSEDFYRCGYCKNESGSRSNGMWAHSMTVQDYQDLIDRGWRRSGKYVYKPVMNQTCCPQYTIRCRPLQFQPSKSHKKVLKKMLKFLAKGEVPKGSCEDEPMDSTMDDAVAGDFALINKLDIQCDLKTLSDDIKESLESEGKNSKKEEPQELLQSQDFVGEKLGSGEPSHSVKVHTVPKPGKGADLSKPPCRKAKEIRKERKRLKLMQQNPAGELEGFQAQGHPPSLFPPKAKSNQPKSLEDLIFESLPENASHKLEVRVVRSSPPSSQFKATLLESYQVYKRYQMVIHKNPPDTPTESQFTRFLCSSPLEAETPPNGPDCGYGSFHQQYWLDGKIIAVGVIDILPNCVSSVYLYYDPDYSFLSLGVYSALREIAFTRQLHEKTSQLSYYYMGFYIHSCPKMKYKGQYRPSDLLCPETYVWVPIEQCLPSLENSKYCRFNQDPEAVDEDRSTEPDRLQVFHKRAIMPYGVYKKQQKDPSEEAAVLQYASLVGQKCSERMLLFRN
Summary of the method: as §1

[17] = target: T17, Q7Z6M1 (Homo sapiens, UniProt Q7Z6M1)
T17 construct: endogenous in cells; host or cells: DM93 cells (SILAC), live-cell treatment
T17 sequence (Q7Z6M1 whole entry): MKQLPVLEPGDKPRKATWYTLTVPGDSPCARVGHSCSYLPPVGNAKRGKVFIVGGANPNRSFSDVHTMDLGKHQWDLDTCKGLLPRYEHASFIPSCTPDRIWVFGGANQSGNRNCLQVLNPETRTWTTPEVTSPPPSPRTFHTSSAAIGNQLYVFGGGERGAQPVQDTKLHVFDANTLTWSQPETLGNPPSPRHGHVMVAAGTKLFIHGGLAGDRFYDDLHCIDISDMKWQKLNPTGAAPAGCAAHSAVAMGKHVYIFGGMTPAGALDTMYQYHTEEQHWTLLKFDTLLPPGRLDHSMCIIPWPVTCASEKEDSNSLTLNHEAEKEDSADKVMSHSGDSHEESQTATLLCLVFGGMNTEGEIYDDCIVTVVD
Summary of the method: as §1

[18] = target: T18, P20839 (Homo sapiens, UniProt P20839)
T18 construct: endogenous in cells; host or cells: DM93 (SILAC)
Summary of the method: as §1

O=C(c1ccc(S(=O)(=O)n2cncn2)cc1)N1CCC(c2ccccc2)CC1 [HHS-0701, (4-((1H-1,2,4-triazol-1-yl)sulfonyl)phenyl)(4-phenylpiperidin-1-yl)methanone]
liganded tyrosine site 249 [1]: HHS0701.Y (tyrosine sites that showed >80% reductions (SR >5) in probe labeling in cells treated with compounds (liganded sites)) | liganded tyrosine site 82 [2]: HHS0701.Y (tyrosine sites that showed >80% reductions (SR >5) in probe labeling in cells treated with compounds (liganded sites))

O=C(NCC1CC1)c1ccc(S(=O)(=O)n2cncn2)cc1 [HHS-0201, 4-((1H-1,2,4-triazol-1-yl)sulfonyl)-N-(cyclopropylmethyl)benzamide]
liganded tyrosine site 42 [3]: HHS0201.Y|HHS0301.Y|HHS0401.Y|HHS0701.Y (tyrosine sites that showed >80% reductions (SR >5) in probe labeling in cells treated with compounds (liganded sites))

O=C(NC1CC1)c1ccc(S(=O)(=O)n2cncn2)cc1 [HHS-0101, 4-((1H-1,2,4-triazol-1-yl)sulfonyl)-N-cyclopropylbenzamide]
liganded tyrosine site 38 [4]: HHS0101.Y (tyrosine sites that showed >80% reductions (SR >5) in probe labeling in cells treated with compounds (liganded sites)) | liganded tyrosine site 289 [5]: HHS0101.Y|HHS0701.Y (tyrosine sites that showed >80% reductions (SR >5) in probe labeling in cells treated with compounds (liganded sites)) | liganded tyrosine site 113 [6]: HHS0101.Y (tyrosine sites that showed >80% reductions (SR >5) in probe labeling in cells treated with compounds (liganded sites)) | liganded tyrosine site 639 [7]: HHS0101.Y|HHS0301.Y|HHS0401.Y (tyrosine sites that showed >80% reductions (SR >5) in probe labeling in cells treated with compounds (liganded sites)) | liganded tyrosine site 165 [8]: HHS0101.Y (tyrosine sites that showed >80% reductions (SR >5) in probe labeling in cells treated with compounds (liganded sites)) | liganded tyrosine site 20 [9]: HHS0101.Y|HHS0301.Y|HHS0401.Y|HHS0701.Y (tyrosine sites that showed >80% reductions (SR >5) in probe labeling in cells treated with compounds (liganded sites)) | liganded tyrosine site 86 [10]: HHS0101.Y|HHS0701.Y (tyrosine sites that showed >80% reductions (SR >5) in probe labeling in cells treated with compounds (liganded sites)) | liganded tyrosine site 320 [11]: HHS0101.Y (tyrosine sites that showed >80% reductions (SR >5) in probe labeling in cells treated with compounds (liganded sites))

O=C(NC1CCCCC1)c1ccc(S(=O)(=O)n2cncn2)cc1 [HHS-0301, 4-((1H-1,2,4-triazol-1-yl)sulfonyl)-N-cyclohexylbenzamide]
liganded tyrosine site 218 [12]: HHS0301.Y (tyrosine sites that showed >80% reductions (SR >5) in probe labeling in cells treated with compounds (liganded sites)) | liganded tyrosine site 43 [13]: HHS0301.Y|HHS0401.Y (tyrosine sites that showed >80% reductions (SR >5) in probe labeling in cells treated with compounds (liganded sites)) | liganded tyrosine site 56 [13]: HHS0301.Y (tyrosine sites that showed >80% reductions (SR >5) in probe labeling in cells treated with compounds (liganded sites))

O=C(NCc1ccccc1)c1ccc(S(=O)(=O)n2cncn2)cc1 [HHS-0401, 4-((1H-1,2,4-triazol-1-yl)sulfonyl)-N-benzylbenzamide]
liganded tyrosine site 485 [14]: HHS0401.Y (tyrosine sites that showed >80% reductions (SR >5) in probe labeling in cells treated with compounds (liganded sites)) | liganded tyrosine site 244 [15]: HHS0401.Y (tyrosine sites that showed >80% reductions (SR >5) in probe labeling in cells treated with compounds (liganded sites)) | liganded tyrosine site 63 [16]: HHS0401.Y|HHS0701.Y (tyrosine sites that showed >80% reductions (SR >5) in probe labeling in cells treated with compounds (liganded sites)) | liganded tyrosine site 87 [17]: HHS0401.Y|HHS0701.Y (tyrosine sites that showed >80% reductions (SR >5) in probe labeling in cells treated with compounds (liganded sites)) | liganded tyrosine site 233 [18]: HHS0401.Y (tyrosine sites that showed >80% reductions (SR >5) in probe labeling in cells treated with compounds (liganded sites))
